Paper PMC9496151, “Expression and Function of ABC Transporters in Human Alveolar Epithelial Cells” (Biomolecules, 2022)
Blank lines part the entries; values can stand above or below the compound they belong to.

Tests used:
MDR1 [1] = assay: Bidirectional transport of Rhodamine123 (MDR1 activity) in EpiAlveolar; type: in vitro ADME, human
Experimental: (§1) The activity of ABC transporters was determined by measuring the apical-to-basolateral (AB) and basolateral-to-apical (BA) fluxes of specific substrates. To this aim, cell monolayers were washed twice in HBSS and equilibrated for 30 min in the same solution (pH 7.4, 37 °C). […] After 0, 30, 60, and 120 min, aliquots of the solution were collected from the opposite chamber (receiver chamber) and replaced with the same volume of HBSS. The fluxes were determined by reading fluorescence with an EnSpire® Multimode Plate Reader (Perkin Elmer), or radioactivity with MicroBeta^2 liquid scintillation spectrometer. The apparent permeability coefficient (Papp) was calculated from the data obtained.
(§2) Efflux ratio (ER) was calculated as the ratio between Papp measured for BA and AB fluxes, while uptake ratio (UR) was the ratio between Papp measured for AB and BA fluxes.

MDR1 [2] = assay: Bidirectional transport of Rhodamine123 (MDR1 activity) in hAELVi; type: in vitro ADME, human
Experimental: as §1, §2

ABCG2/BCRP [3] = assay: Bidirectional transport of Bodipy FL Prazosin (BCRP activity) in EpiAlveolar; type: in vitro ADME, human
Experimental: as §1, §2

ABCG2/BCRP [4] = assay: Bidirectional transport of Bodipy FL Prazosin (BCRP activity) in hAELVi; type: in vitro ADME, human
Experimental: as §1, §2

[5] = 10 µM PSC833, 1 µM Rhodamine123, AB and BA

Experimental for EpiAlveolar™: The paracellular and transcellular permeability of cell monolayers to solutes was assessed by monitoring the apical-to-basolateral fluxes of ^14C-mannitol and ^3H-propranolol, respectively. In detail, cell monolayers were washed and incubated for 30 min in Hank’s Balanced Salt Solution (HBSS, pH 7.4, 37 °C); HBSS containing ^14C-mannitol (1 µCi/mL, corresponding to 20 µM) or ^3H-propranolol (3 µCi/mL; 10 µM) was then added to the apical side. Aliquots of medium were collected from the basolateral compartment after 0, 30, 60, and 120 min and replaced with fresh HBSS; radioactivity in each sample was measured with a MicroBeta^2 liquid scintillation spectrometer (Perkin Elmer, Italy) and employed to calculate the apparent permeability coefficient (Papp).
The apparent permeability coefficient (Papp) of the tracer molecules was calculated according to the equation:Papp = (dQ⁄dt)⁄(A×C0×60) where dQ/dt is the transport rate of the tracer, A is the filter surface area, C0 is the initial concentration of the tracer in the donor chamber, and 60 is the conversion from minutes to seconds.

Compound: C/C=C/C[C@@H](C)C(=O)[C@H]1C(=O)N[C@@H](C(C)C)C(=O)N(C)CC(=O)N(C)[C@@H](CC(C)C)C(=O)N[C@@H](C(C)C)C(=O)N(C)[C@@H](CC(C)C)C(=O)N[C@@H](C)C(=O)N[C@H](C)C(=O)N(C)[C@@H](CC(C)C)C(=O)N(C)[C@@H](CC(C)C)C(=O)N(C)[C@@H](C(C)C)C(=O)N1C [PSC833]
effect of inhibitor on Papp of Rhodamine123 (MDR1 [1]; [5]): not modified | effect of inhibitor on Papp of Rhodamine123 (MDR1 [2]; [5]): not modified

Compound: COc1ccc2c3c([nH]c2c1)[C@H](CC(C)C)N1C(=O)[C@H](CCC(=O)OC(C)(C)C)NC(=O)[C@@H]1C3 [Ko143]
inhibition of Bodipy™ FL Prazosin fluxes (ABCG2/BCRP [3]; 20 µM Ko143): no inhibition | inhibition of Bodipy™ FL Prazosin fluxes (ABCG2/BCRP [4]; 20 µM Ko143): no inhibition

Compound: Cc1nc(-c2ccc(OCC(C)C)c(C#N)c2)sc1C(=O)O [febuxostat]
inhibition of Bodipy™ FL Prazosin fluxes (ABCG2/BCRP [3]; 50 µM Febuxostat): no inhibition | inhibition of Bodipy™ FL Prazosin fluxes (ABCG2/BCRP [4]; 50 µM Febuxostat): no inhibition

Compound: COC(=O)c1ccccc1-c1c2ccc(=N)cc-2oc2cc(N)ccc12 [Rhodamine123]
Papp, AB versus BA fluxes (MDR1 [1]; 1 µM Rhodamine123): comparable for AB and BA fluxes | efflux ratio (ER) versus uptake ratio (UR) (MDR1 [1]; 1 µM Rhodamine123): comparable values | Papp, AB versus BA fluxes (MDR1 [2]; 1 µM Rhodamine123): comparable for AB and BA fluxes | efflux ratio (ER) versus uptake ratio (UR) (MDR1 [2]; 1 µM Rhodamine123): comparable values

Continued, values first:

transcellular permeability (Papp), apical-to-basolateral flux (hAELVi): comparable permeability | transcellular permeability (Papp), apical-to-basolateral flux (EpiAlveolar™): comparable permeability
Compound: CC(C)NCC(O)COc1cccc2ccccc12 (centres unmarked) [propranolol]

paracellular permeability (Papp), apical-to-basolateral flux (hAELVi): slight not significant difference | paracellular permeability (Papp), apical-to-basolateral flux (EpiAlveolar™): more permeable
Compound: OC[C@@H](O)[C@@H](O)[C@H](O)[C@H](O)CO [mannitol]
